Experimental findings from patent publication US20120189641A1, “COMBINATION ANTI-CANCER THERAPY” (OSI PHARMACEUTICALS, LLC, priority 2009, published 2012) are described below.

“Also recorded” adds a separate entry of the source.

One assay deals with T1, IGF-1R (Homo sapiens, UniProt P08069).
T1 construct: endogenous in cells; host or cells: A673, H322, HT-29 tumor cells
In words: IGF-1R phosphorylation (pIGF-1R) in tumor cells, RTK capture array. The conditions noted are these: OSI-906 3 uM, 24 hours. The assay is classed as cell-based. An excerpt:
The media was removed, cells were washed two times with PBS, and cells were lysed as previously described.

A further assay relates to IGF-1R and IR. In words: Biochemical potency against IGF-1R and IR. The conditions noted are these: comparison of IGF-1R and IR.
The next assay relates to Akt pathway. Nature of the assay: Downstream signaling (pAkt, pErk) in tumor cell lysates, Western blotting. The assay is classed as cell-based, human. The note with it: H322 NSCLC and HT-29 CRC cells; OSI-906 3 uM or MAB-391 2 ug/ml; 24 hours. Here is the method: Cell extracts were prepared by detergent lysis (50 mM Tris-HCl, pH 8.0, 150 mM NaCl, 1% NP-40, 0.5% sodium deoxycholate, 0.1% SDS, containing protease inhibitor (P8340, Sigma, St. Louis, Mo.) and phosphatase inhibitor (P5726, Sigma, St. Louis, Mo.) cocktails. The soluble protein concentration was determined by micro-BSA assay (Pierce, Rockford Ill.). Protein immunodetection was performed by electrophoretic transfer of SDS-PAGE separated proteins to nitrocellulose, incubation with antibody, and chemiluminescent second step detection (PicoWest; Pierce, Rockford, Ill.). The antibodies included: phospho-Akt(473) and total Akt. Both antibodies were obtained from Cell Signaling Technology, Inc. (Danvers, Mass.). For analysis of an agent's effect on the phosphorylation of downstream signaling proteins, cell lines were grown to approximately 70% confluency, at which time the indicated agent was added at the indicated concentration, and cells were incubated at 37° C. for 24 hours. The media was removed, cells were washed two times with PBS, and cells were lysed as previously described.

T1 sequence (P08069 31-1367): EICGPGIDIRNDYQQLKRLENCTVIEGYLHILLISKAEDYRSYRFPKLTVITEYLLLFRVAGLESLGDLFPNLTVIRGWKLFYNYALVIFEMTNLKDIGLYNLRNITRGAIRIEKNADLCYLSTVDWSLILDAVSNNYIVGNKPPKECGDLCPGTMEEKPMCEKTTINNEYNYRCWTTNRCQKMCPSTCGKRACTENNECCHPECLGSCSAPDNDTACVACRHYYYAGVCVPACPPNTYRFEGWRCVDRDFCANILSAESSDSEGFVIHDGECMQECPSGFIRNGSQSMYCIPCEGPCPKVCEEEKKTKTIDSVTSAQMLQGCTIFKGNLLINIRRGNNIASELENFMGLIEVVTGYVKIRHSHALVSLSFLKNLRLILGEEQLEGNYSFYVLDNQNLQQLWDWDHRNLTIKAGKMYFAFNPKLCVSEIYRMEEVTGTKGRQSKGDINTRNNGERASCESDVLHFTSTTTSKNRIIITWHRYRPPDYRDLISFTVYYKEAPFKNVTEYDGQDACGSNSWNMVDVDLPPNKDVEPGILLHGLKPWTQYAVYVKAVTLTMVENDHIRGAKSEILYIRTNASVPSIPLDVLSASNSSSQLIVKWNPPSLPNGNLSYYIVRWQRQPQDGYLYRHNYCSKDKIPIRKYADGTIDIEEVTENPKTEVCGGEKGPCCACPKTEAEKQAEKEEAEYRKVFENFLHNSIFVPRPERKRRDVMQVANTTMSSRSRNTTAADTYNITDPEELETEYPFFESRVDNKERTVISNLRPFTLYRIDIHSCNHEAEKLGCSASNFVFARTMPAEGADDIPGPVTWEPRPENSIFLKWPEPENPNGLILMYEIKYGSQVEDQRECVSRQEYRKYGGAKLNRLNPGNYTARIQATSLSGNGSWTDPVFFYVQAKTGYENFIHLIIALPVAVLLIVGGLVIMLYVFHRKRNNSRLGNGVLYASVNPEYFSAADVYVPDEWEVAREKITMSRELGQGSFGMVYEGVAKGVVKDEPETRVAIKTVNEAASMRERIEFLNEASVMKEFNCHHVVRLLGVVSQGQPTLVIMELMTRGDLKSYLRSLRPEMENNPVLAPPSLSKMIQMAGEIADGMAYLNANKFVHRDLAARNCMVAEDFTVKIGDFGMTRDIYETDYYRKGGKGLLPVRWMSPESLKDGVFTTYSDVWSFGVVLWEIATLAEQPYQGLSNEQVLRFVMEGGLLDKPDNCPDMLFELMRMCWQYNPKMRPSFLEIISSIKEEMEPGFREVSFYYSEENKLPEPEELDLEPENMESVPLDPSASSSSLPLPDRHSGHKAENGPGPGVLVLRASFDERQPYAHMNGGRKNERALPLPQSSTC

As to `C[C@]1(O)C[C@@H](c2nc(-c3ccc4ccc(-c5ccccc5)nc4c3)c3c(N)nccn32)C1` [OSI-906, cis-3-[8-amino-1-(2-phenyl-quinolin-7-yl)-imidazo[1,5-a]pyrazin-3-yl]-1-methyl-cyclobutanol], the “inhibition of IGF-1R (pIGF-1R)” value against IGF-1R (A673 Ewing's Sarcoma cells) was “inhibits both IR and IGF-1R”. Also, at IGF-1R (H322 and HT-29 cells (FIG. 2)), the “inhibition of pIGF-1R” value is “robust inhibition of both pIR and pIGF-1R”. The “biochemical potencies against IGF-1R and IR” value in the assay with IGF-1R and IR was “similar”. Also, the “inhibition of the Akt pathway (pAkt)” value in the assay with Akt pathway was “greater blockade of the Akt pathway; also recorded: greater capacity to inhibit the Akt pathway”.
